Data from PMC6210068 (ACS Omega, 2018).

What was measured:
KOR = KOR (Homo sapiens, UniProt P41145); assay: biochemical; assay type: binding; details: for Ki: KOR, [3H]U69593, mean ± SEM, N = 2–4
hDAT = hDAT (Homo sapiens, UniProt Q01959); assay: Radioligand binding at DAT; details: 10 μM; [3H]WIN35428; negative = enhanced radioligand binding
MOR = MOR (Homo sapiens, UniProt P35372); assay: biochemical; assay type: binding
DOR = DOR (Homo sapiens, UniProt P41143); assay: Radioligand binding at DOR
rat kidney TSPO = rat kidney TSPO (Rattus norvegicus, UniProt P16257); assay: Radioligand binding at TSPO; details: for Ki: TSPO, rat TSPO, [3H]PK11195
hA3AR = molecular target: T1, hA3AR (Homo sapiens, UniProt P0DMS8); assay: A3AR binding
T1 sequence (P0DMS8 1-318): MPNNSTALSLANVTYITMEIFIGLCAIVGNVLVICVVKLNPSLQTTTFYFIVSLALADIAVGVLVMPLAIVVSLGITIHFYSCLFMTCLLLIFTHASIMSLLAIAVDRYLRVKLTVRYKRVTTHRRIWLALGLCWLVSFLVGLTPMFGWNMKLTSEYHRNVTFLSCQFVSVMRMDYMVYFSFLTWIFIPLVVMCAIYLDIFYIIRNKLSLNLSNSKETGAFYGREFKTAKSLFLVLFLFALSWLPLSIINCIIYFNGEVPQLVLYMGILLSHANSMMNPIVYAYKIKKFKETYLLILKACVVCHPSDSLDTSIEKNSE

Chain of rat kidney TSPO (P16257 whole entry): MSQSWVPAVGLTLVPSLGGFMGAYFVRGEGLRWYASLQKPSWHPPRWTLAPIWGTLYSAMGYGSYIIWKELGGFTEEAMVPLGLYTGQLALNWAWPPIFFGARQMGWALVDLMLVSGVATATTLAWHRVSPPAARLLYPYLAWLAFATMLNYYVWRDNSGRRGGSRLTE
Chain of DOR (P41143 whole entry): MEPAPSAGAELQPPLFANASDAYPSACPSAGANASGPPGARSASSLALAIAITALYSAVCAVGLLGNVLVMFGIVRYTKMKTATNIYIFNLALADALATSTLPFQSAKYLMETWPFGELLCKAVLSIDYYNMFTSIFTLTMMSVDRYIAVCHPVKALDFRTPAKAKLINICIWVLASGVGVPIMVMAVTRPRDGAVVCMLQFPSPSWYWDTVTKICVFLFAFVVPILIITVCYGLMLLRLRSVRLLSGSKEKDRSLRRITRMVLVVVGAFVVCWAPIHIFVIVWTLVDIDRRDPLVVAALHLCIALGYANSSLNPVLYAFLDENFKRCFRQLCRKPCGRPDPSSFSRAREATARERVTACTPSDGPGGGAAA
Chain of KOR (P41145 whole entry): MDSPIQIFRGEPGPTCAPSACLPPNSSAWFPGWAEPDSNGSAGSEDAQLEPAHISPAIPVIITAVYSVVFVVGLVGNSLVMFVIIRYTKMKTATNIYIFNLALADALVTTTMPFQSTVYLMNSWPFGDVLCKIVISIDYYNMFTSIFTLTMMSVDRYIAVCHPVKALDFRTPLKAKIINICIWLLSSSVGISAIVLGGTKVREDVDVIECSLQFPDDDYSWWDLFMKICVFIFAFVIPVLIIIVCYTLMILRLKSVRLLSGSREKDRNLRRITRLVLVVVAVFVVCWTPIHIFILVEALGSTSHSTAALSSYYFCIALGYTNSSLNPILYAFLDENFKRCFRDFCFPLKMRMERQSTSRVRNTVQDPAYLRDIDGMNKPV
Chain of hDAT (Q01959 whole entry): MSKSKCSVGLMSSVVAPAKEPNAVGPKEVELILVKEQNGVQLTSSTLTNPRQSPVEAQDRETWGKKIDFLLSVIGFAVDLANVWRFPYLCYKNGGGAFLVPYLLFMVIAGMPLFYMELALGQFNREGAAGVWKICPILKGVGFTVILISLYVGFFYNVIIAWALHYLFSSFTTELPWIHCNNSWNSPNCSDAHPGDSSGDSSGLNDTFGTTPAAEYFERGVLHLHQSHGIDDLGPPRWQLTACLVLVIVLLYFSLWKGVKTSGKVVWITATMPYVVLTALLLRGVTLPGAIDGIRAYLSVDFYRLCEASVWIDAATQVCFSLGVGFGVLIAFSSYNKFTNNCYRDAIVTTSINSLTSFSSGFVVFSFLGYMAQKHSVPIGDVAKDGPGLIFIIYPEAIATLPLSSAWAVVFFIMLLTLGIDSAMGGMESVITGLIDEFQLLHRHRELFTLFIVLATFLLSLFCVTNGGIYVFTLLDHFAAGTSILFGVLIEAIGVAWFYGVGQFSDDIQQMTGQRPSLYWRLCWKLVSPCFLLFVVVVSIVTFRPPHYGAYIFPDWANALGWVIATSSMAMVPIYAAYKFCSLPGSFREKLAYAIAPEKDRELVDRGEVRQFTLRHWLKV
Chain of MOR (P35372 whole entry): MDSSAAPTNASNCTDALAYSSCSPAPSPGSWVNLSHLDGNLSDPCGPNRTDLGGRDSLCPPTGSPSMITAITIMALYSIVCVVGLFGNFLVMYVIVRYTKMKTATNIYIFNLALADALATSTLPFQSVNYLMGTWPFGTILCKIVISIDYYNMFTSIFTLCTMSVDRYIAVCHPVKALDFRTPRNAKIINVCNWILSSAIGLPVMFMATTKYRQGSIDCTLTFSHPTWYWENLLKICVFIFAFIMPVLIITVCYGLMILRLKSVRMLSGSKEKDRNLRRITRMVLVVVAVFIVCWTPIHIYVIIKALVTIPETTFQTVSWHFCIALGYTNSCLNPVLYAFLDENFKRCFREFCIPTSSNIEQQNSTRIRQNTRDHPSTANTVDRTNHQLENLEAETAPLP

Ki (KOR) | DAT, inhibition, % of control at 10 μM (hDAT) | Ki (rat kidney TSPO) | Compound | MOR, inhibition of radioligand binding at 10 μM (class) (MOR; Table 2) | DOR, inhibition of radioligand binding at 10 μM (class) (DOR; Table 2) | DOR, inhibition of radioligand binding at 10 μM (class) (DOR; Table 1) | further results
1090 ± 320 nM | –196 ± 58% | > 10000 nM | CNc1nc(C#Cc2ccc(Cl)s2)nc2c1ncn2[C@H]1[C@H](O)[C@H](O)[C@]2(C(=O)OCCC(C)C)C[C@H]12 [compound 33] | ^d (<30% inhibition of radioligand binding at 10 μM) | ^d (<30% inhibition of radioligand binding at 10 μM) |  | 
 | 50% | ~300 nM | CNC(=O)[C@@]12C[C@@H]1[C@@H](n1cnc3c(NCc4cccc(Cl)c4)nc(C#Cc4ccccc4Cl)nc31)[C@H](O)[C@@H]2O [compound 8] |  |  | f (<30% inhibition of radioligand binding at 10 μM) | 
 |  | 684 ± 175 nM | CNC(=O)[C@@]12C[C@@H]1[C@@H](n1cnc3c(NC)nc(C#Cc4ccc(Cl)s4)nc31)[C@H](O)[C@@H]2O [compound 14] |  |  | ^e (30–50% inhibition of radioligand binding at 10 μM) | 
~400 nM | <20% |  | CNc1nc(C#Cc2ccc(Cl)s2)nc2c1ncn2[C@H]1[C@H](O)[C@H](O)[C@]2(C(=O)OC(C)C)C[C@H]12 [compound 31] | ^d (<30% inhibition of radioligand binding at 10 μM) | ^d (<30% inhibition of radioligand binding at 10 μM) |  | KOR, inhibition of radioligand binding at 10 μM (class) (KOR; Table 2): ^d (<30% inhibition of radioligand binding at 10 μM); TSPO, inhibition of radioligand binding at 10 μM (class) (rat kidney TSPO; Table 2): ^d (<30% inhibition of radioligand binding at 10 μM)
217 ± 100 nM | –24% | > 10000 nM | CCOC(=O)[C@@]12C[C@@H]1[C@@H](n1ccc3c(NCCc4ccccc4)nc(C#Cc4ccccc4)nc31)[C@@H]1OC(C)(C)O[C@@H]12 [compound 82, Ethyl(3aR,3bS,4aS,5R,5aS)-2,2-dimethyl-5-(4-(phenethylamino)-2-(phenylethynyl)-7H-pyrrolo[2,3-d]pyrimidin-7-yl)tetrahydrocyclopropa[3,4]cyclopenta[1,2-d][1,3]dioxole-3b(3aH)-carboxylate] |  |  |  | Ki (MOR): > 10 µM; Ki (DOR): 881 ± 158 nM; Ki (hA3AR): 905 ± 144 nM
 |  |  | Ala2-MePhe4-Glyol5-Enkephalin [compound 99, reference compound] |  |  |  | Kd (MOR; read-out: radioligand Kd, MOR): 1.73 ± 0.14 nM
 | 3% |  | CNC(=O)[C@@]12C[C@@H]1[C@@H](n1cnc3c(NCc4cccc(Cl)c4)nc(Cl)nc31)[C@H](O)[C@@H]2O [compound 5] |  |  | ^e (30–50% inhibition of radioligand binding at 10 μM) | TSPO, inhibition of radioligand binding at 10 μM (class) (rat kidney TSPO; Table 1): ^f (<30% inhibition of radioligand binding at 10 μM)
 |  |  | O[C@@H]1[C@H](O)[C@@H]2C[C@@H]2[C@H]1n1ccc2c(NC(C3CC3)C3CC3)nc(I)nc21 [compound 58, (1R,2R,3S,4R,5S)-4-(4-((Dicyclopropylmethyl)amino)-2-iodo-7H-pyrrolo[2,3-d]pyrimidin-7-yl)bicyclo[3.1.0]hexane-2,3-diol] |  |  |  | KOR, inhibition of radioligand binding at 10 μM (class) (KOR; Table 5): ^e (<30% inhibition of radioligand binding at 10 μM); MOR, inhibition of radioligand binding at 10 μM (class) (MOR; Table 5): ^e (<30% inhibition of radioligand binding at 10 μM); DOR, inhibition of radioligand binding at 10 μM (class) (DOR; Table 5): ^e (<30% inhibition of radioligand binding at 10 μM); Ki (hA3AR): 5310 ± 1310 nM; TSPO, inhibition of radioligand binding at 10 μM (class) (rat kidney TSPO; Table 5): ^e (<30% inhibition of radioligand binding at 10 μM)
 | 17% | 3570 ± 1820 nM | O[C@@H]1[C@H](O)[C@@H]2C[C@@H]2[C@H]1n1cnc2c(NCC(c3ccccc3)c3ccccc3)nc(C#Cc3ccccc3)nc21 [compound 53] |  |  |  | DOR, inhibition of radioligand binding at 10 μM (class) (DOR; Table 4): ^g (<30% inhibition of radioligand binding at 10 μM)
3670 ± 1640 nM | <20% |  | CNc1nc(C#Cc2ccc(Cl)s2)nc2c1ncn2[C@H]1[C@H](O)[C@H](O)[C@]2(C(=O)OCCc3ccccc3)C[C@H]12 [compound 36] | ^d (<30% inhibition of radioligand binding at 10 μM) | ^d (<30% inhibition of radioligand binding at 10 μM) |  | Ki (hA3AR): 114 ± 64 nM; TSPO, inhibition of radioligand binding at 10 μM (class) (rat kidney TSPO; Table 2): ^d (<30% inhibition of radioligand binding at 10 μM)
 | –235% |  | CNC(=O)[C@@]12C[C@@H]1[C@@H](n1cnc3c(NC)nc(C#Cc4ccc(Br)s4)nc31)[C@H](O)[C@@H]2O [compound 15] |  |  | ^e (30–50% inhibition of radioligand binding at 10 μM) | TSPO, inhibition of radioligand binding at 10 μM (class) (rat kidney TSPO; Table 1): ^f (<30% inhibition of radioligand binding at 10 μM)
 | –50% |  | CNc1nc(C#Cc2ccc(Cl)s2)nc2c1ncn2[C@H]1[C@H](O)[C@H](O)[C@]2(C(=O)O)C[C@H]12 [compound 38] | ^d (<30% inhibition of radioligand binding at 10 μM) | ^d (<30% inhibition of radioligand binding at 10 μM) |  | KOR, inhibition of radioligand binding at 10 μM (class) (KOR; Table 2): ^d (<30% inhibition of radioligand binding at 10 μM); TSPO, inhibition of radioligand binding at 10 μM (class) (rat kidney TSPO; Table 2): ^d (<30% inhibition of radioligand binding at 10 μM)
 | 1% |  | CNC(=O)[C@@]12C[C@@H]1[C@@H](n1cnc3c(NC)cc(C#Cc4ccc(Cl)s4)nc31)[C@H](O)[C@@H]2O [compound 16] |  |  | ^e (30–50% inhibition of radioligand binding at 10 μM) | TSPO, inhibition of radioligand binding at 10 μM (class) (rat kidney TSPO; Table 1): ^e (30–50% inhibition of radioligand binding at 10 μM)
> 10000 nM | <20% |  | CNc1nc(C#Cc2ccc(Cl)s2)nc2c1ncn2[C@H]1[C@H](O)[C@H](O)[C@]2(C(=O)OCCC3CCCCC3)C[C@H]12 [compound 34] | ^d (<30% inhibition of radioligand binding at 10 μM) | ^c (30–50% inhibition of radioligand binding at 10 μM) |  | Ki (hA3AR): 334 ± 132 nM; TSPO, inhibition of radioligand binding at 10 μM (class) (rat kidney TSPO; Table 2): ^c (30–50% inhibition of radioligand binding at 10 μM)
 | –14% |  | CNC(=O)[C@@]12C[C@@H]1[C@@H](n1ccc3c(NC)ncnc31)[C@H](O)[C@@H]2O [compound 17] |  |  | ^e (30–50% inhibition of radioligand binding at 10 μM) | Ki (hA3AR): 498 ± 46 nM; TSPO, inhibition of radioligand binding at 10 μM (class) (rat kidney TSPO; Table 1): ^e (30–50% inhibition of radioligand binding at 10 μM)
 | –2% |  | O[C@@H]1[C@H](O)[C@@H]2C[C@@H]2[C@H]1n1cnc2c(NCc3cccc(Cl)c3)ncnc21 [compound 48] |  |  |  | DOR, inhibition of radioligand binding at 10 μM (class) (DOR; Table 4): ^g (<30% inhibition of radioligand binding at 10 μM); TSPO, inhibition of radioligand binding at 10 μM (class) (rat kidney TSPO; Table 4): ^g (<30% inhibition of radioligand binding at 10 μM)
 | –211% |  | CNC(=O)[C@@]12C[C@@H]1[C@@H](n1cnc3c(NC)nc(C#Cc4ccccc4)nc31)[C@H](O)[C@@H]2O [compound 12] |  |  | ^e (30–50% inhibition of radioligand binding at 10 μM) | TSPO, inhibition of radioligand binding at 10 μM (class) (rat kidney TSPO; Table 1): ^e (30–50% inhibition of radioligand binding at 10 μM)
 | –321% |  | CNC(=O)[C@H]1O[C@@H](n2cnc3c(NC)nc(C#Cc4ccc(Cl)s4)nc32)[C@H](O)[C@@H]1O [compound 45] |  |  |  | KOR, inhibition of radioligand binding at 10 μM (class) (KOR; Table 3): ^e (<30% inhibition of radioligand binding at 10 μM)
 | –213% |  | CNc1nc(C#Cc2ccccc2)nc2c1ncn2[C@H]1[C@H](O)[C@H](O)[C@@H]2C[C@@H]21 [compound 49] |  |  |  | DOR, inhibition of radioligand binding at 10 μM (class) (DOR; Table 4): ^g (<30% inhibition of radioligand binding at 10 μM); TSPO, inhibition of radioligand binding at 10 μM (class) (rat kidney TSPO; Table 4): ^f (30–50% inhibition of radioligand binding at 10 μM)
 | –322% |  | CNC(=O)[C@@]12C[C@@H]1[C@@H](n1cnc3c(NC)nc(C#Cc4ccc(F)c(F)c4)nc31)[C@H](O)[C@@H]2O [compound 11] |  |  | ^e (30–50% inhibition of radioligand binding at 10 μM) | TSPO, inhibition of radioligand binding at 10 μM (class) (rat kidney TSPO; Table 1): ^e (30–50% inhibition of radioligand binding at 10 μM)
1210 ± 100 nM | –285% | > 10000 nM | CCCCOC(=O)[C@@]12C[C@@H]1[C@@H](n1cnc3c(NC)nc(C#Cc4ccc(Cl)s4)nc31)[C@H](O)[C@@H]2O [compound 32] | ^d (<30% inhibition of radioligand binding at 10 μM) | ^d (<30% inhibition of radioligand binding at 10 μM) |  | 
 | 16% |  | O[C@@H]1[C@H](O)[C@@H]2C[C@@H]2[C@H]1n1cnc2c(NCc3cccc(Cl)c3)nc(C#Cc3ccc(F)c(F)c3)nc21 [compound 3] |  |  |  | DOR, inhibition of radioligand binding at 10 μM (class) (DOR; Table 4): ^g (<30% inhibition of radioligand binding at 10 μM)
8920 ± 1080 nM | <20% | 1090 ± 290 nM | CNc1nc(C#Cc2ccc(Cl)s2)nc2c1ncn2[C@H]1[C@H](O)[C@H](O)[C@]2(C(=O)OCCCc3ccccc3)C[C@H]12 [compound 37] | ^d (<30% inhibition of radioligand binding at 10 μM) | ^d (<30% inhibition of radioligand binding at 10 μM) |  | Ki (hA3AR): 132 ± 68 nM
